Data set [1] is described as follows: Release of radioactivity from implanted solid chitosan hydrogels to adjacent normal tissues (radiographic imaging). It is filed as in vivo. The conditions noted are these: FIG. 4; rats, non-encapsulated, loaded in solid chitosan hydrogel implant; Day-1 to Day-7.
The nature of data set [2]: In vitro release of fluorescence from chitosan hydrogels to the surrounding media. Format: physicochemical. Particulars: FIG. 5, all time points tested, up to two weeks. How it is done: To determine the release of large molecules from the hydrogels, the following experiment was conducted. The chitosan hydrogels with the best injectability properties were analyzed naïve or loaded with the alginate microparticles with the best encapsulation efficiency. The in vitro release studies were developed by using a large-size molecule such as albumin and a small-size molecule as cresyl violet to detect the efficacy in both encapsulation settings. Albumin is not detectable by fluorescence reader or spectrophotometer, thus FITC was labeled to albumin. […] Different time points were measured to analyze short and long-term release. At 0, 1, 2, 4, 8, and 24 h, for short-term release, and 0, 0.33, 1, 2, 3, 7, 14, 21, 28, 42 days for long-term release, samples from the PBS solution that surrounded the chitosan hydrogels were analyzed by fluorescence reader (Alb-FITC and FITC) at 485/516 nm or spectrophotometer (CV) at 595 nm. The % release was calculated as follows: % Release=(Chitosan hydrogel−Blank)/(Control−Blank)*100
To assess these concepts, the release of fluorescence to the surrounding media was tested from chitosan hydrogels containing free-fluorescein, fluorescien-conjugated to bovine serum albumin (FITC-Alb), and FITC-Alb encapsulated in calcium-alginate microparticles.

With `CC(C)CCCC(C)C1CCC2C3CC(C[131I])C4=C(CCC(O)C4)C3CCC12C` (centres unmarked) [^131I-nor-cholesterol], the “radioactive leakage from the implant to adjacent normal tissues” value in data set [1] is recorded as “radioactive leakage from the implant starting at Day-1 that becomes more evident at Day-7”.
On to “FITC-Alb: fluorescien-conjugated to bovine serum albumin, in chitosan hydrogel”, for which, in data set [2], the “relative release of fluorescence to the surrounding media” value was “less than half of the relative release of fluorescein”.

Values taken from patent publication US10548996B2, “Hydrogels for localized radiotherapy” (Washington University, priority 2014, dated 2020).
